# Test results taken from patent US7977371B2, “Pyrrole derivative having ureido group and aminocarbonyl group as substituents” (Santen Pharmaceutical Co., Ltd., priority 2007, dated 2011).
# Tested on: TNF-α-induced IL-6 production in normal human skin fibroblast-derived CCD-1059Sk cells
# Assay: Test for measurement of inhibitory activity against TNF-α-induced IL-6 production
# Assay type: cell-based
# Conditions: Homo sapiens, CCD-1059Sk, 16 h, test compound at 10 μM, TNF-α stimulation 16 hours, inhibition ratio of 100% or more is indicated as 100%
# Method: 1. Test for Measurement of Inhibitory Activity Against IL-6 Production
# An inhibitory effect on TNF-α-induced IL-6 production in normal human skin fibroblast-derived CCD-1059Sk cells (ATCC No. CRL-2072) was evaluated. The amount of IL-6 was determined by the homogeneous time-resolved fluorescence method using HTRF™ Human IL-6 kit (Cat. No. 62IL6PEB, manufactured by CIS-Bio international, Inc.). Specific test methods will be described below.
# (Preparation of Test Compound Solution)
# After a test compound was dissolved in dimethyl sulfoxide, the resulting solution was diluted with D-MEM medium containing 0.1% heat-inactivated fetal bovine serum, 0.1 mM MEM non-essential amino acid solution, 100 U/mL penicillin and 100 μg/mL streptomycin (hereinafter referred to as “medium”), whereby a 40 μM test compound solution was prepared.
# (Test Method and Measurement Method)
# 1) CCD-1059Sk cells prepared at a density of 3×10^5 cells/mL were inoculated in a 384-well plate in an amount of 10 μL per well such that the cell density was 3×10^3 cells/well.
# 2). After the plate was incubated at 37° C. for several hours in a CO2 incubator, 5 μL of the test compound was added to each well.
# 3) After the plate was incubated at 37° C. for 1 hour in a CO2 incubator, 5 μL of a 40 ng/mL TNF-α solution was added to each well.
# 4) After the plate was incubated at 37° C. for 16 hours in a CO2 incubator, 10 μL of a cryptate-labeled anti-IL-6 antibody and an XL665-labeled anti-IL-6 antibody containing potassium fluoride was added to each well.
# 5) After the plate was incubated at room temperature for several hours, a fluorescence intensity ratio (665 nm/620 nm) was determined for each well using a multimode plate reader Analyse™ HT (manufactured by Molecular Device Corporation) and Criterion Host software version 2.00 (manufactured by Molecular Device Corporation), and then, the amount of IL-6 was calculated.
# 6) The same procedures as in the above 1) to 5) were performed except that 0.4% dimethyl sulfoxide was added in place of the test compound, and the obtained result was designated as the control.
# 7) The same procedures as in the above 1) to 5) were performed except that 0.4% dimethyl sulfoxide and the medium were added in place of the test compound and the TNF-α solution, respectively, and the obtained result was designated as the background.
# (Calculation Formula of IL-6 Production Inhibition Ratio)
# An IL-6 production inhibition ratio (%) was calculated from the following formula. IL-6 Production Inhibition Ratio (%)=100×{1−[(Amount of IL-6 for Test Compound)−(Amount of IL-6 for Background)/(Amount of IL-6 for Control)−(Amount of IL-6 for Background)]} (Evaluation Results)
row,SMILES,inhibition at 10 µM [%]
1,"NC(=O)Nc1[nH]c(-c2cc(F)ccc2F)cc1C(N)=O [Compound 1-53, 2-Aminocarbonylamino-5-(2,5-difluorophenyl) pyrrole-3-carboxamide]",94
2,"Cc1c(-c2ccc(Br)cc2)[nH]c(NC(N)=O)c1C(N)=O [Compound 1-21, 2-Aminocarbonylamino-5-(4-bromophenyl)-4-methylpyrrole-3-carboxamide]",88
3,"CSc1cccc(-c2cc(C(N)=O)c(NC(N)=O)[nH]2)c1 [Compound 1-43, 2-Aminocarbonylamino-5-(3-methylthiophenyl) pyrrole-3-carboxamide]",88
4,"N#CCOc1ccccc1-c1cc(C(N)=O)c(NC(N)=O)[nH]1 [Compound 4-1, 2-Aminocarbonylamino-5-(2-cyanomethyloxyphenyl)pyrrole-3-carboxamide]",96
5,"CN(C)CCOc1ccccc1-c1cc(C(N)=O)c(NC(N)=O)[nH]1 [Compound 4-31, 2-Aminocarbonylamino-5-[2-(2-dimethylaminoethyloxy)phenyl]pyrrole-3-carboxamide]",98
6,CN1CCN(CCOc2ccccc2-c2cc(C(N)=O)c(NC(N)=O)[nH]2)CC1 [Compound 8-2],77
7,"CNCc1c(-c2cccc(Cl)c2)[nH]c(NC(N)=O)c1C(N)=O [Compound 19-1, 2-Aminocarbonylamino-5-(3-chlorophenyl)-4-(methylaminomethyl)pyrrole-3-carboxamide]",97
8,NC(=O)Nc1[nH]c(-c2ccccc2OCCN2CCOCC2)cc1C(N)=O [Compound 8-3],95
9,"NC(=O)Nc1[nH]c(-c2ccc(-c3ccccc3)cc2)cc1C(N)=O [Compound 1-5, 2-Aminocarbonylamino-5-(4-biphenyl) pyrrole-3-carboxamide]",67
10,"CC(=O)Oc1ccccc1-c1cc(C(N)=O)c(NC(N)=O)[nH]1 [Compound 5-1, 2-Aminocarbonylamino-5-(2-acetoxyphenyl)pyrrole-3-carboxamide]",94
11,"Cc1ccc(-c2cc(C(N)=O)c(NC(N)=O)[nH]2)cc1 [Compound 1-11, 2-Aminocarbonylamino-5-(4-methylphenyl) pyrrole-3-carboxamide]",88
12,NC(=O)Nc1[nH]c(-c2ccoc2)cc1C(N)=O [Compound 9-2],87
13,"COc1cc(C)c(Cl)cc1-c1cc(C(N)=O)c(NC(N)=O)[nH]1 [Compound 1-24, 2-Aminocarbonylamino-5-(5-chloro-2-methoxy-4-methylphenyl)pyrrole-3-carboxamide]",99
14,"CCOc1ccc(Cl)cc1-c1cc(C(N)=O)c(NC(N)=O)[nH]1 [Compound 4-48, 2-Aminocarbonylamino-5-(5-chloro-2-ethoxyphenyl)pyrrole-3-carboxamide]",100
15,"NC(=O)Nc1[nH]c(-c2cc(Cl)ccc2Cl)cc1C(N)=O [Compound 1-27, 2-Aminocarbonylamino-5-(2,5-dichlorophenyl) pyrrole-3-carboxamide]",100
16,NC(=O)Nc1[nH]c(-c2ccccc2OCCN2CCCC2)cc1C(N)=O [Compound 8-4],99
17,CN(CCOc1ccc(F)cc1-c1cc(C(N)=O)c(NC(N)=O)[nH]1)C1CCCCC1 [Compound 8-22],98
18,"NC(=O)Nc1[nH]c(-c2cc(F)c(F)cc2F)cc1C(N)=O [Compound 1-52, 2-Aminocarbonylamino-5-(2,4,5-trifluorophenyl) pyrrole-3-carboxamide]",93
19,"NC(=O)Nc1[nH]c(-c2cccs2)cc1C(N)=O [Compound 1-16, 2-Aminocarbonylamino-5-(thiophen-2-yl) pyrrole-3-carboxamide]",94
20,"CCOc1ccc(F)cc1-c1cc(C(N)=O)c(NC(N)=O)[nH]1 [Compound 4-47, 2-Aminocarbonylamino-5-(2-ethoxy-5-fluorophenyl)pyrrole-3-carboxamide]",100

row,SMILES,inhibition at 10 µM [%]
1,"N#Cc1cccc(-c2cc(C(N)=O)c(NC(N)=O)[nH]2)c1 [Compound 1-39, 2-Aminocarbonylamino-5-(3-cyanophenyl) pyrrole-3-carboxamide]",99
2,"NC(=O)Nc1[nH]c(-c2ccccc2OCC2CC2)cc1C(N)=O [Compound 4-23, 2-Aminocarbonylamino-5-(2-cyclopropylmethyloxyphenyl) pyrrole-3-carboxamide]",97
3,NC(=O)Nc1[nH]c(-c2cc(F)ccc2OCCN2CCCC2)cc1C(N)=O [Compound 8-12],100
4,CN1CCN(CCOc2ccc(Cl)cc2-c2cc(C(N)=O)c(NC(N)=O)[nH]2)CC1 [Compound 8-15],98
5,"COc1ccc(-c2cc(C(N)=O)c(NC(N)=O)[nH]2)cc1Cl [Compound 1-37, 2-Aminocarbonylamino-5-(3-chloro-4-methoxyphenyl)pyrrole-3-carboxamide]",98
6,"CN1CCCC1CCOc1ccccc1-c1cc(C(N)=O)c(NC(N)=O)[nH]1 (centres unmarked) [Compound 4-32, 2-Aminocarbonylamino-5-[2-[2-(1-methylpyrrolidin-2-yl)ethyloxy]phenyl]pyrrole-3-carboxamide]",99
7,"Cc1ccc(-c2cc(C(N)=O)c(NC(N)=O)[nH]2)s1 [Compound 1-41, 2-Aminocarbonylamino-5-(5-methylthiophen-2-yl) pyrrole-3-carboxamide]",96
8,"CCSc1cccc(-c2cc(C(N)=O)c(NC(N)=O)[nH]2)c1 [Compound 1-44, 2-Aminocarbonylamino-5-(3-ethylthiophenyl) pyrrole-3-carboxamide]",92
9,CSCCOc1ccc(F)cc1-c1cc(C(N)=O)c(NC(N)=O)[nH]1 [Compound 8-18],100
10,"C=CCOc1ccc(Cl)cc1-c1cc(C(N)=O)c(NC(N)=O)[nH]1 [Compound 4-49, 5-(2-Allyloxy-5-chlorophenyl)-2-(aminocarbonylamino)pyrrole-3-carboxamide]",100
11,"NC(=O)Nc1[nH]c(-c2ccccc2O)cc1C(N)=O [Compound 3-1, 2-Aminocarbonylamino-5-(2-hydroxyphenyl)pyrrole-3-carboxamide]",95
12,"NC(=O)Nc1[nH]c(-c2ccccc2OCc2cccnc2)cc1C(N)=O [Compound 4-15, 2-Aminocarbonylamino-5-[2-(pyridin-3-ylmethyloxy)phenyl]pyrrole-3-carboxamide]",91
13,CC1CCN(CCOc2ccc(F)cc2-c2cc(C(N)=O)c(NC(N)=O)[nH]2)CC1 [Compound 8-13],100
14,"NC(=O)Nc1[nH]c(-c2ccccc2Cl)cc1C(N)=O [Compound 1-40, 2-Aminocarbonylamino-5-(2-chlorophenyl) pyrrole-3-carboxamide]",99
15,"NC(=O)Nc1[nH]c(-c2ccc(F)c(Cl)c2)cc1C(N)=O [Compound 1-36, 2-Aminocarbonylamino-5-(3-chloro-4-fluorophenyl)pyrrole-3-carboxamide]",100
16,CN(CCO)CCOc1ccccc1-c1cc(C(N)=O)c(NC(N)=O)[nH]1 [Compound 8-11],96
17,"NC(=O)Nc1[nH]c(-c2ccccc2OCCN2CCCCC2)cc1C(N)=O [Compound 4-27, 2-Aminocarbonylamino-5-[2-[2-(piperidin-1-yl)ethyloxyl]phenyl]pyrrole-3-carboxamide]",99
18,"CCOC(=O)c1ccc(-c2cc(C(N)=O)c(NC(N)=O)[nH]2)cc1 [Compound 1-30, 2-Aminocarbonylamino-5-(4-ethoxycarbonylphenyl) pyrrole-3-carboxamide]",90
19,"CCOc1ccccc1-c1cc(C(N)=O)c(NC(N)=O)[nH]1 [Compound 4-11, 2-Aminocarbonylamino-5-(2-ethoxyphenyl)pyrrole-3-carboxamide]",97
20,"NC(=O)Nc1[nH]c(-c2ccccn2)cc1C(N)=O [Compound 1-2, 2-Aminocarbonylamino-5-(pyridin-2-yl) pyrrole-3-carboxamide]",85

# Same assay, conditions: Homo sapiens, test compound at 10 μM, TNF-α stimulation 16 hours, inhibition ratio of 100% or more is indicated as 100%
row,SMILES,inhibition at 10 µM [%]
1,"CCCNC(=O)Oc1ccccc1-c1cc(C(N)=O)c(NC(N)=O)[nH]1 [Compound 6-1, 2-Aminocarbonylamino-5-(2-propylaminocarbonyloxyphenyl)pyrrole-3-carboxamide]",99
